Assay results as given in patent US20110306636A1, “OXAZOLE PYRIDINE DERIVATIVES USEFUL AS S1P1 RECEPTOR AGONISTS” (Merck Serono SA, priority 2009, published 2011).
Structures can show the parent of a compound that is named as a salt. Where two headings read alike, the source gives them in different places.

Assays:
S1P3 [1] = target: T1, S1P3 (Homo sapiens, UniProt Q99500); assay: Receptor binding assay, [33P]sphingosine 1-phosphate competition, S1P3
How it was run: (§1)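 SPA competition binding on CHO-cell membranes with 30 pM (S1P1) or 15 pM (S1P3) [33P]S1P in 50 mM HEPES pH 7.5, 5 mM MgCl2, 100 mM NaCl, 0.4% fatty acid-free BSA, 60 min at RT. Percent inhibition normalised to total binding and to non-specific binding (1000-fold unlabelled S1P), triplicates averaged.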

S1P1 [2] = target: T2, S1P1 (Homo sapiens, UniProt P21453); assay: 35S-GTPγS binding assay, S1P1 membranes; format: biochemical; settings: membranes from CHO cells expressing S1P1; read-out: S1P1/GTPG EC50
T2 sequence (P21453 whole entry, species assumed): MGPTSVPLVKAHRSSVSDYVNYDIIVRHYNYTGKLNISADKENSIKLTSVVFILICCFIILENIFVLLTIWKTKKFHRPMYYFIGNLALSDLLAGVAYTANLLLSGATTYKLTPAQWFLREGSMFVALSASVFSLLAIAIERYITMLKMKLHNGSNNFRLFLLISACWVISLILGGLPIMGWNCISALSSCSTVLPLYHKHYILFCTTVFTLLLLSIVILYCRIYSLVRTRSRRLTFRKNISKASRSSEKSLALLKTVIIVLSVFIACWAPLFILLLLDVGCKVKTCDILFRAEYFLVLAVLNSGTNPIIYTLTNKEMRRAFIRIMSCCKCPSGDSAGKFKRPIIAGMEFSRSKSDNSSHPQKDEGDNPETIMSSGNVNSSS
Experimental: (§2) Membranes Preparation: Membranes were prepared from CHO cells expressing S1P1 or S1P3 for use in ligand and 35S-GTPγS binding studies. Cells were suspended in 50 mM TRIS, pH 7.4, 2 mM EDTA, 250 mM Sucrose (buffer A) and 1× Complete protease inhibitor cocktail (Roche), and disrupted at 4° C. by N2 decompression using a cell disruption bomb (Parr Instrument). Following centrifugation at 1000 RPM for 10 min at 4° C., the supernatant was diluted (2×) in buffer A and centrifuged again at 19000 RPM for 75 min at 4° C. The pellet was then suspended in 10 mM HEPES, pH 7.4, 1 mM EDTA, 250 mM Sucrose (Buffer B), and 1× Complete EDTA-free protease inhibitor cocktail and homogenized using a potter. Membranes were flash frozen in liquid N2 and stored at −80° C.
(§3) Measurements of 35S-GTPγS Binding: Membranes (1 to 10 μg protein) prepared as described above, were incubated in 96-well Scintiplates (PerkinElmer) with test compounds diluted in DMSO, in 140 μl of 20 mM HEPES, pH 7.4, 10 mM MgCl2, 2 μg/well Saponin, 0.2% fatty acid free BSA (Assay buffer), 125 mM NaCl and 1.5 μM GDP. The assay was initiated with the addition of 60 μl of 1.5 nM [35S]-GTPγS (1100 Ci/mmol; GE Healthcare) in assay buffer. After 60 min incubation at 30° C. on a shaker, plates were centrifuged for 10 min at 2000 RPM. Supernatant was discarded and membrane bound radioactivity was measured on a PerkinElmer 1450 MicroBeta counter. Triplicate samples were averaged and expressed as % response relative to S1P activation in absence of compound (n=2).
The “potency” or the “activity” of the compounds is determined by the EC50 values as evaluated in the above described 35S-GTPγS binding assay.

S1P3 [3] = target: T1, S1P3; assay: 35S-GTPγS binding assay, S1P3 membranes; format: biochemical; settings: membranes from CHO cells expressing S1P3; read-out: S1P3/GTPG EC50
Experimental: as §2, §3

[4] = target: T3, human S1P1 Receptor fused to the green fluorescent protein (EGFP) (Homo sapiens, UniProt P21453); assay: Internalization of S1P1 in S1P1-U2OS cells by cell imaging analysis; format: cell-based; settings: 1 hour incubation, 384-well
T3 construct: host or cells: U2OS (human bone osteosarcoma epithelial cells), CMV promoter, geneticin selection
T3 sequence (P21453 with tags, fused parts or gaps): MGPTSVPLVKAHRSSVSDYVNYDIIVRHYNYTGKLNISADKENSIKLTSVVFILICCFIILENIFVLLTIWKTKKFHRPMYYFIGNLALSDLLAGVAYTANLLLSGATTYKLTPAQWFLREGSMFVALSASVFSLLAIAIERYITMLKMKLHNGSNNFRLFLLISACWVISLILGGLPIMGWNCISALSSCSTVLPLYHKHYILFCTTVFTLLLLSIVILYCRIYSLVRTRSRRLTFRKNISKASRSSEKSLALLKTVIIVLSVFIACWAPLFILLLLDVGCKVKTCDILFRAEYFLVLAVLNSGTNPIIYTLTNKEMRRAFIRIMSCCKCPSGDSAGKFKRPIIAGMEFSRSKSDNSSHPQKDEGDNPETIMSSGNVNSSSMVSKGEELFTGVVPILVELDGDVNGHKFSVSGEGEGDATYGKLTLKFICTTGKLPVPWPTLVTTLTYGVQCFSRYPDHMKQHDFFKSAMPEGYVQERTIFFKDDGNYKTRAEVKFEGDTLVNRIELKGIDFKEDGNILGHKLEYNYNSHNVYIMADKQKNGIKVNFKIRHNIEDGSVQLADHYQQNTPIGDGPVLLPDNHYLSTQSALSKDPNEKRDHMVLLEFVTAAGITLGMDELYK
How it was run: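 Human U2OS osteosarcoma cells stably expressed human S1P1-EGFP. After 2 h serum starvation in 0.1% fatty-acid-free BSA medium, cells were treated with compounds for 1 h at 37 °C. Cells were then fixed and Hoechst-stained, and internalization was imaged as spots (receptor) per nucleus.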

S1P1 [5] = target: T2, S1P1; assay: Receptor binding assay, [33P]sphingosine 1-phosphate competition, S1P1
How it was run: as §1

[6] = 96 well-plate, read-out: S1P3 binding IC50 (M) (96 well-plate)
[7] = 384 well-plate, read-out: S1P3 binding IC50 (M) (384 well-plate)
[8] = 96 well-plate, read-out: S1P1 binding IC50 (M) (96 well-plate)
[9] = 384 well-plate, read-out: S1P1 binding IC50 (M) (384 well-plate)

T1 sequence (Q99500 whole entry, species assumed): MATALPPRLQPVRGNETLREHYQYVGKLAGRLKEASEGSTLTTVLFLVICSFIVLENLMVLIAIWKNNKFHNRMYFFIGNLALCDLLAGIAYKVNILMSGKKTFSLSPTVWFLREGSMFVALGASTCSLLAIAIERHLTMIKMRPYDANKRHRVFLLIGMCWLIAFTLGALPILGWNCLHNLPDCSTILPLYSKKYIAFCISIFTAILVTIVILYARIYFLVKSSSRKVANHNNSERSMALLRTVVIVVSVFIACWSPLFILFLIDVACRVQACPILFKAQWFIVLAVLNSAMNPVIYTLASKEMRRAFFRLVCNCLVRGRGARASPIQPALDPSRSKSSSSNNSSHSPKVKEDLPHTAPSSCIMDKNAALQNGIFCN

Structure (SMILES)	IC50 (S1P3 [1]; [6])	IC50 (S1P3 [1]; [7])	EC50 (S1P1 [2])	EC50 (S1P3 [3])	EC50 [4]	IC50 (S1P1 [5]; [8])	IC50 (S1P1 [5]; [9])	melting point
COCc1cc(-c2nc(-c3ccc(N)nc3)no2)ccc1-c1ccccc1C [Example 4, 5-{5-[2-(methoxymethyl)-2′-methylbiphenyl-4-yl]-1,2,4-oxadiazol-3-yl}pyridin-2-amine, hydrochloride salt]	6.07e-06 M	7.85e-06 M	4.11 nM	2690 nM	32 nM	1.75e-09 M	3.2e-08 M	–
COCc1cc(-c2nc(-c3cnc(N)c(Cl)c3)no2)ccc1-c1ccccc1C [Example 14, 3-chloro-5-{5-[2-(methoxymethyl)-2′-methylbiphenyl-4-yl]-1,2,4-oxadiazol-3-yl}pyridin-2-amine]	1.65e-05 M	–	5.87 nM	1460 nM	44.9 nM	1.89e-08 M	–	–
COCc1cc(-c2nc(-c3cnc(NCCC(=O)O)c(Cl)c3)no2)ccc1-c1ccccc1C [Example 37, N-(3-chloro-5-{5-[2-(methoxymethyl)-2′-methylbiphenyl-4-yl]-1,2,4-oxadiazol-3-yl}pyridin-2-yl)-beta-alanine, hydrochloride salt]	2.86e-06 M	1.5e-05 M	2.37 nM	2110 nM	19.8 nM	1.07e-09 M	1.06e-08 M	–

The remaining lines, values ahead:

IC50 (S1P3 [1]; [6])	IC50 (S1P3 [1]; [7])	EC50 (S1P1 [2])	EC50 (S1P3 [3])	EC50 [4]	IC50 (S1P1 [5]; [8])	IC50 (S1P1 [5]; [9])	melting point	Structure (SMILES)
–	–	–	–	37.4 nM	–	2.16e-08 M	143 to 145 °C	COCc1cc(-c2nc(-c3cnc(N)c(C)c3)no2)ccc1-c1ccccc1Cl [Example 76, 5-{5-[2′-chloro-2-(methoxymethyl)biphenyl-4-yl]-1,2,4-oxadiazol-3-yl}-3-methylpyridin-2-amine]
–	–	–	–	73.5 nM	–	1.49e-08 M	163 to 165 °C	CCOc1cc(-c2nc(-c3cnc(N)c(C)c3)no2)ccc1-c1ccccc1C(F)(F)F [Example 77, 5-{5-[2-ethoxy-2′-(trifluoromethyl)biphenyl-4-yl]-1,2,4-oxadiazol-3-yl}-3-methylpyridin-2-amine]
2e-05 M	–	–	–	26.8 nM	6.02e-09 M	–	182 to 184 °C	COCc1cc(-c2nc(-c3cnc(N)c(Cl)c3)no2)ccc1-c1ccccc1Cl [Example 47, 3-chloro-5-{5-[2′-chloro-2-(methoxymethyl)biphenyl-4-yl]-1,2,4-oxadiazol-3-yl}pyridin-2-amine]
–	–	–	–	58.7 nM	–	2.15e-08 M	162 to 164 °C	COCc1cc(-c2nc(-c3cnc(N)c(C)c3)no2)ccc1-c1ccccc1F [Example 79, 5-{5-[2′-fluoro-2-(methoxymethyl)biphenyl-4-yl]-1,2,4-oxadiazol-3-yl}-3-methylpyridin-2-amine]
